Molecules are shown by their SMILES.

In assay [1] the test system is Septoria tritici. Briefly: M1. Microtest: activity against leaf blotch on wheat caused by Septoria tritici (Septtr), micro titer plate growth. The settings on record: 405 nm, 7 days after inoculation, relative growth vs active compound-free control (100%). It is filed as cell-based. The method, then: Microtest The active compounds were formulated separately as a stock solution having a concentration of 10000 ppm in dimethyl sulfoxide. M1. Activity Against Leaf Blotch on Wheat Caused by Septoria tritici (Septtr) The stock solutions were mixed according to the ratio, pipetted onto a micro titer plate (MTP) and diluted with water to the stated concentrations. A spore suspension of Septoria tritici in an aqueous biomalt or yeast-bactopeptone-glycerine solution was then added. The plates were placed in a water vapor-saturated chamber at a temperature of 18° C. Using an absorption photometer, the MTPs were measured at 405 nm 7 days after the inoculation. The measured parameters were compared to the growth of the active compound-free control variant (100%) and the fungus-free and active compound-free blank value to determine the relative growth in % of the pathogens in the respective active compounds

In assay [2] the test system is Septoria tritici. Briefly: G1. Preventative control of leaf blotch on wheat caused by Septoria tritici (Septtr P1), green house. In kind it is in vivo. The settings on record: 300 pm active substance, % diseased leaf area, untreated control 90%. On the procedure:
The spray solutions were prepared in several steps:
The stock solution were prepared: a mixture of acetone and/or dimethylsulfoxide and the wetting agent/emulsifier Wettol, which is based on ethoxylated alkylphenoles, in a relation (volume) solvent-emulsifier of 99 to 1 was added to 25 mg of the compound to give a total of 5 ml. Water was then added to total volume of 100 ml.
This stock solution was diluted with the described solvent-emulsifier-water mixture to the given concentration.
G1. Preventative Control of Leaf Blotch on Wheat Caused by Septoria tritici (Septtr P1)
Leaves of pot-grown wheat seedling were sprayed to run-off with an aqueous suspension of the active compound or their mixture, prepared as described. The plants were allowed to air-dry. The next day the plants were inoculated with an aqueous spore suspension of Septoria tritici. Then the trial plants were immediately transferred to a humid chamber at 18-22° C. and a relative humidity close to 100%. After 4 days the plants were transferred to a chamber with 18-22° C. and a relative humidity close to 70%. After 4 weeks the extent of fungal attack on the leaves was visually assessed as % diseased leaf area.

The next assay relates to Botritis cinerea. Briefly: G4. Preventative fungicidal control of Botritis cinerea on leaves of green pepper (Botrci P1), green house. In kind it is in vivo. The conditions noted are these: 300 pm active substance, % diseased leaf area, untreated control 90%. On the procedure: 1) Green House The spray solutions were prepared in several steps: The stock solution were prepared: a mixture of acetone and/or dimethylsulfoxide and the wetting agent/emulsifier Wettol, which is based on ethoxylated alkylphenoles, in a relation (volume) solvent-emulsifier of 99 to 1 was added to 25 mg of the compound to give a total of 5 ml. Water was then added to total volume of 100 ml. This stock solution was diluted with the described solvent-emulsifier-water mixture to the given concentration. G4. Preventative fungicidal control of Botritis cinerea on leaves of green pepper (Botrci P1 Young seedlings of green pepper were grown in pots to the 4 to 5 leaf stage. These plants were sprayed to run-off with an aqueous suspension, containing the concentration of active ingredient or their mixture mentioned in the table below. The next day the plants were inoculated with a aqueous biomalt solution containing the spore suspension of Botritis cinerea. Then the plants were immediately transferred to a humid chamber. After 5 days at 22 to 24° C. and a relative humidity close to 100% the extent of fungal attack on the leaves was visually assessed as % diseased leaf area.

As to `C#CC(Cn1cncn1)(OC)c1ccc(Oc2ccc(Cl)cc2)cc1Cl` (stereo not drawn) [I-1], in the assay on Septoria tritici [1], the “Growth (%) at 0.002 ppm Septtr” value was 14%.

As for `C=CCOC(C#CC)(Cn1cncn1)c1ccc(Oc2ccc(Cl)cc2)cc1Cl` (stereo not drawn) [I-12], the “Disease (%) at 300 pm Septtr P1” value in the assay with Septoria tritici [2] amounted to 0%. Moreover, in the assay with Botritis cinerea, the “Disease (%) at 300 pm Botrci P1” value came out at 0%.

For `C=CCOC(Cn1cncn1)c1ccc(Oc2ccc(Cl)cc2)cc1Cl` (stereo not drawn), the “Disease (%) at 300 pm Septtr P1” value with Septoria tritici [2] was found to be 30%. Besides, the “Disease (%) at 300 pm Botrci P1” value with Botritis cinerea was determined as 30%.

Regarding `COC(Cn1cncn1)c1ccc(Oc2ccc(Cl)cc2)cc1Cl` (stereo not drawn), in the assay on Septoria tritici [2], the “Disease (%) at 300 pm Septtr P1” value is 40%. Further, the “Growth (%) at 0.002 ppm Septtr” value with Septoria tritici [1] is given as 72%.

Take `C=CCOC(C=C)(Cn1cncn1)c1ccc(Oc2ccc(Cl)cc2)cc1Cl` (stereo not drawn) [I-8]: the “Disease (%) at 300 pm Septtr P1” value in the assay with Septoria tritici [2] came to 0%.

Take `C=CC(Cn1cncn1)(OC)c1ccc(Oc2ccc(Cl)cc2)cc1Cl` (stereo not drawn) [I-7, 1-[2-[2-chloro-4-(4-chlorophenoxy)phenyl]-2-methoxy-but-3-enyl]-1,2,4-triazole]: the “Disease (%) at 300 pm Septtr P1” value in the assay with Septoria tritici [2] was found to be 0%.

These data come from patent publication US9247747B2, “Fungicidal substituted 1-{2-[2-halo-4-(4-halogen-phenoxy)-phenyl]-2-alkoxy-2-alkynyl/alkenyl-ethyl}-1H-[1,2,4]triazole compounds” (BASF SE, priority 2011, dated 2016).
